Test results as given in PubChem BioAssay AID504560 (Southern Research Specialized Biocontainment Screening …, 2011).

Test system: human PBMC HIV-1 CCR5-tropic replication, RT activity
Assay: inhibitors of CCR5-tropic HIV-1 replication in PBMCs, dose response, cell-based, human PBMC, set 2 (AID 504560)

First: Cc1c2c(=O)n(-c3nc4ccccc4s3)nc-2cc(O)n1CCc1ccc(O)cc1
Second: COc1ccc(CCn2c(O)cc3nn(-c4nc5ccccc5s4)c(=O)c-3c2C)cc1
The IC50 of the first is 4-fold lower: 1510 nM for the first, 6110 nM for the second. The first is the more potent here.

Compared with Cc1c2c(=O)n(-c3nc4ccccc4s3)nc-2cc(O)n1CCC(C)C, Cc1c2c(=O)n(-c3nc4ccccc4s3)nc-2cc(O)n1CCc1cccs1 is 1.6-fold lower in IC50: 5400 nM for the first, 3470 nM for the second.

COc1ccccc1Cn1c(O)cc2nn(-c3nc4ccccc4s3)c(=O)c-2c1C and Cc1c2c(=O)n(-c3nc4ccccc4s3)nc-2cc(O)n1Cc1ccccc1Cl are within 1.5-fold of each other in IC50: 5400 nM for the first, 6310 nM for the second.

Cc1c2c(=O)n(-c3nc4ccccc4s3)nc-2cc(O)n1Cc1ccc(F)cc1 and COc1ccc(Cn2c(O)cc3nn(-c4nc5ccccc5s4)c(=O)c-3c2C)cc1 are within 1.5-fold of each other in IC50: 3140 nM for the first, 2290 nM for the second.

Compared with Cc1c2c(=O)n(-c3nc4ccccc4s3)nc-2cc(O)n1Cc1ccccc1, Cc1c2c(=O)n(-c3nc4ccccc4s3)nc-2cc(O)n1Cc1cccnc1 is 2.6-fold lower in IC50: 2420 nM for the first, 920 nM for the second.

Cc1c2c(=O)n(-c3nc4ccccc4s3)nc-2cc(O)n1Cc1cccs1 and Cc1c2c(=O)n(-c3nc4ccccc4s3)nc-2cc(O)n1Cc1ccncc1 are within 1.5-fold of each other in IC50: 1970 nM for the first, 1890 nM for the second.

Work on Cc1c2c(=O)n(-c3nc4ccccc4s3)nc-2cc(O)n1C1CC1 yielded an IC50 of 720 nM.
